Test results reported in paper PMC7957705 (Molecules, 2021).
Read-outs that look alike come from different tables or passages of the source. Where a SMILES comes first, the peptide text is derived from it. Bridges are numbered along the chain shown (N, C = ends). Triazole bridges read from a SMILES are 1,4-linked. [ ]: non-standard residue; d: D form. The star is where a group is joined. Benzoyl(4-guanidino) = N=C(N)Nc1ccc(C(=O)*)cc1; Aha = [N-]=[N+]=NCC[C@H](N)C(=O)O; β3hV = CC(C)[C@H](N)CC(=O)O; Pra = C#CC[C@H](N)C(=O)O

Legend:
treated animals = details: cited from earlier work
human MCH-R1 [1] = target: T1, human MCH-R1 (Homo sapiens, UniProt Q99705); test: MCH-induced cytosolic Ca2+ ion mobilization, antagonist effect; format: cell-based; details: for Ki: antagonism of MCH-induced cytosolic Ca2+ mobilization, read-out: Ki (functionality, antagonism at MCH-R1)
T1 construct: expressed in transfected cells
T1 sequence (Q99705 whole entry): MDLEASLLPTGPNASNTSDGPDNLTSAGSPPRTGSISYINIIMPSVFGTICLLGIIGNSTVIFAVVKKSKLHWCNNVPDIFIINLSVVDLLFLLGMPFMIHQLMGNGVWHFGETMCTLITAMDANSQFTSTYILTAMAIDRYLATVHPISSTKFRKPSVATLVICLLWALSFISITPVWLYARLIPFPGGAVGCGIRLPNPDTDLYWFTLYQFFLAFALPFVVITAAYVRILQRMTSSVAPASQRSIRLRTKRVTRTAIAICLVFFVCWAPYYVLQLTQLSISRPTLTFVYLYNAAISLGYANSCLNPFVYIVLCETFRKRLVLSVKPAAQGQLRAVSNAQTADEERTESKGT
Procedure: The functional assay was run onto cells expressing the hMCH-R1 receptor, as described in Wang et al.. In brief, the cells are suspended in DMEM buffer (Invitrogen), then distributed in microplates at a density of 4.104 cells/well. The fluorescent probe (Fluo4 Direct, Invitrogen) mixed with probenecid in Hanks’ Balanced Salt solution (HBSS) (Invitrogen) complemented with 20 mM HEPES (Invitrogen) (pH 7.4) is then added into each well and equilibrated with the cells for 60 min at 37 °C, then 15 min at 22 °C. Then, the assay plates are positioned in a microplate reader (CellLux, PerkinElmer) which is used for the addition of the test compound, reference agonist or HBSS buffer (basal control), and the measurements of changes in fluorescence intensity, which varies proportionally to the free cytosolic Ca^2+ ion concentration. For stimulated control measurements, MCH at 300 nM is added in separate assay wells. The results are expressed as a percentage of the control response to 300 nM MCH. The standard reference agonist is MCH, which is tested in each experiment at several concentrations to generate a concentration-response curve from which its EC50 value is calculated. For the antagonist effect, the results are expressed as a percentage inhibition of the control response to 30 nM MCH, which was added to all tested wells and controls 5 min after the candidate products.

human MCH-R1 [2] = target: T1, human MCH-R1; test: Binding displacement of [125I]-[Phe13,Tyr19]-MCH at membranes expressing human MCH-R1
Procedure: Stable cell lines were obligatory for all receptor programs. We cloned the human receptor and established the cell line as previously described. In brief, HEK293 (HEK) cells were grown in Dulbecco’s Modified Eagle medium (DMEM) supplemented with 10% fetal calf serum, 2 mM glutamine, 100 IU/mL penicillin and […] streptomycin. They were seeded at 5 × 10^6 cells in T75 cm^2 culture flasks. One day later, they were transfected with […] of the pcDNA3.1 (Invitrogen, Groningen, The Netherlands) containing the human MCH-R1 using lipofectamine (Life Technologies, Cergy Pontoise, France), as previously described. One day later, cells were trypsinized, resuspended in a complete DMEM medium containing […] of geneticin and seeded at different dilutions in 96-well plates which were kept for 2 to 3 weeks in a humidified CO2 incubator. At the end of the selection period, isolated clones were picked up, amplified, and further characterized by cyclic AMP experiments. For each cell line, one positive clone was subcloned before being used for all of the cyclic AMP, [^35S]-GTPγS and receptor binding experiments necessary to characterize them. The stable HEK293 cell line expressing the human MCH-R1 was HEK-hMCH-R1.
Membrane preparations were classically made as previously described. In brief, the HEK-hMCH-R cell line was grown to confluency, harvested in PBS buffer containing 2 mM EDTA and centrifuged at 10,000× g for 5 min (4°C). The resulting pellet was suspended in 20 mM Hepes buffer (pH 7.5), containing 5 mM EGTA and homogenized using a Kinematica polytron. The homogenate was then centrifuged (95,000× g, 30 min, 4 °C) and the resulting pellet was suspended in 50 mM HEPES buffer (pH 7.5), containing 10 mM MgCl2 and 2 mM EGTA. Aliquots of membrane preparations were stored at −80 °C until use. Binding has been described in numerous publications and the test was based on Mac Donald et al.’s description. […] Nonspecific binding is determined in the presence of 0.1 μM MCH. […] The filters are dried and then counted for radioactivity in a scintillation counter (Topcount, Packard) using a scintillation cocktail (Microscint 0, Packard). The results are expressed as percentage inhibition of the control radioligand specific binding. The standard reference compound is MCH, which was tested in each experiment at 8 concentrations to obtain a competition curve from which its IC50 is calculated. The high level of assay robustness and reproducibility of each control monitored over several decades (internal data base, Eurofins) and included in every assay ensure results’ reliability even when performed only twice. […]

[3] = Stability and metabolite identification on rat hepatocytes; format: in vitro ADME; details: 20 µM, 5 h
Procedure: (§1) The stability of the compound was studied on hepatocyte cultures from Wistar rats and CD1 mice. The compound was incubated at 20 µM in the presence of 1.106 cells/mL for 5 h. The incubation was then stopped with acetonitrile (v/v) and the supernatant, after a brief centrifugation (2500 rpm, 5 min 4 °C) was submitted to LC-MS analysis, using a THERMO […] coupled to a Waters Acquity UPLC System equipped with a Waters Acquity UPLC C18 100 × 2.1 mm 1.7 µm column.

[4] = format: in vitro ADME; details: for half-life: plasma
Procedure: Plasmas from 3 species (including commercially available human healthy donors) were adjusted to pH 7.4 if necessary. Incubations were performed at a concentration of 1 µM of the compound at 37 °C (in the presence of a final concentration of DMSO of 2.5% v/v. The incubations were stopped at 0, 15, 30, 60 and 120 min by methanol. Each time point was run in sextuplets. The sampling plates were then centrifuged (2500 rpm, 45 min, 4 °C) and the supernatants pooled. Samples were analyzed for parent compound by LC-MS/MS. The percentage of parent compound remaining at each time point relative to the 0 min sample is then calculated from LC-MS/MS peak area ratios. Then, the stability in plasma was evaluated by incubating human, rat or mouse plasma with the compound(s) as follows: the product (0.1 µM in TRIS buffer pH 7.4 0.1% BSA) was incubated with the plasma at 37 °C. The disappearance of the product was measured at 15, 45, 120, 240 and 300 min by mass spectrometry. Incubations were carried out in a robot Star (Hamilton France, Villebon-sur-Yvette, France). At each sampling time, 50 µL of the reaction medium was removed and diluted with 100 µL of acetonitrile. After centrifugation (20 min at + 4 °C, 4000 rpm), 75 µL of the supernatants was transferred into a 384 well injection plate. Ten microliters were injected onto UPLC coupled with a XEVO TQS mass spectrometer system (Waters, Milford, MA, USA). The unchanged product is quantified using a reference sample (0.1 µM) prepared during the incubation process. A second reference sample at 0.01 µM is prepared in the same conditions to verify the linearity of the detection method. The peak height (or area) is measured to calculate the half-life of the compound.

[5] = Stability and metabolite identification on mouse hepatocytes; format: in vitro ADME; details: 20 µM, 5 h
Procedure: as §1

human MCH-R1 [6] = target: T1, human MCH-R1; design: method as in PMID 19619599, PMID 23267345; details: cited from earlier work
human plasma = details: 37 °C, up to 300 min
rat plasma = details: 37 °C, up to 300 min

CN(C)c1nc(NC2CCC(NCCc3ccc(Br)cc3OC(F)(F)F)CC2)nc2ccccc12 (centres unmarked) [ATC0065]
behavioral concerns (treated animals): some behavioral concerns have been reported

CSCC[C@H](NC(=O)[C@H](C)NC(=O)c1ccc(NC(=N)N)cc1)C(=O)N[C@@H](CC(C)C)C(=O)N[C@@H](CCCNC(=N)N)C(=O)N[C@H](C(=O)N[C@@H](CCCNC(=N)N)C(=O)N1CCC[C@H]1C(=O)N[C@@H](C)C(=O)N[C@@H](Cc1c[nH]c2ccccc12)C(=O)O)C(C)C [GPS13670] ({Benzoyl(4-guanidino)}-AMLRVRPAW-OH)
Ki (human MCH-R1 [1]): 30 nM
affinity at the MCH-R1 receptor (in words) (human MCH-R1 [2]): poor binders

CSCC[C@@H]1NC(=O)[C@@H](NC(=O)c2ccc(NC(=N)N)cc2)CCn2cc(nn2)C[C@@H](C(=O)N[C@@H](Cc2c[nH]c3ccccc23)C(=O)O)NC(=O)[C@@H]2CCCN2C(=O)[C@H](CCCNC(=N)N)NC(=O)C[C@H](C(C)C)NC(=O)[C@H](CCCNC(=N)N)NC(=O)[C@H](CC(C)C)NC1=O [GPS15290, pGua-[N3-hAla-MLR-βhVal-RP-hPra]-W-OH] ({Benzoyl(4-guanidino)}-[Aha]MLR[β3hV]RP[Pra]W-OH; triazole 1-8)
antagonistic functionality (in words) (human MCH-R1 [1]): high picomolar range
Ki (human MCH-R1 [1]): 0.028 nM
affinity at the MCH-R1 receptor (in words) (human MCH-R1 [2]): superior affinity
stability on hepatocytes [3]: mild stability
stability in plasma (in words) ([4]; human): most stable compound
half-life ([4]; human): ≥ 5 h
initial dose remaining after incubation in mice plasma ([4]; mouse): ~20%
stability in plasma (in words) ([4]; mouse): most stable compound
half-life ([4]; mouse): 2.88 ± 0.15 h
stability in plasma (in words) ([4]; rat): most stable compound
half-life ([4]; rat): ≥ 5 h
stability on hepatocytes [5]: mild stability

COc1cc(-n2cnc3cc(-c4ccc(Cl)cc4)sc3c2=O)ccc1OCCN1CCCC1 [GW803430]
behavioral concerns (treated animals; in vivo): some behavioral concerns have been reported

CSCC[C@@H]1NC(=O)[C@@H](NC(=O)c2ccc(NC(=N)N)cc2)CSSC[C@@H](C(=O)N[C@@H](Cc2c[nH]c3ccccc23)C(=O)O)NC(=O)[C@@H]2CCCN2C(=O)[C@H](CCCNC(=N)N)NC(=O)[C@H](Cc2ccc(O)cc2)NC(=O)[C@H](C(C)C)NC(=O)[C@H](CCCNC(=N)N)NC(=O)[C@H](CC(C)C)NC1=O [S38151, p-guanidinobenzoyl-Des-Gly(10)-MCH(7-17), reference compound] ({Benzoyl(4-guanidino)}-CMLRVYRPCW-OH; disulfide 1-9; N-terminus and C-terminus assumed)
Ki (human MCH-R1 [1]): 5 nM
affinity at the human MCH-R1 receptor (human MCH-R1 [6]): low nanomolar range
half-life ([4]; human, pH 7.4): 0.233 ± 0.0167 h
half-life ([4]; mouse, pH 7.4): 0.383 ± 0.03 h
half-life ([4]; rat, pH 7.4): 1 ± 0.05 h

COCC1=C(C(=O)OC)[C@H](c2ccc(F)c(F)c2)N(C(=O)NCCCN2CCC(c3cccc(NC(C)=O)c3)CC2)C(=O)N1 [SNAP-7941]
behavioral concerns (treated animals): some behavioral concerns have been reported

Gua-N3-hAla-Nle-Leu-Arg-βhVal-Arg-Pro-hPra-Trp
not cleaved (human plasma): not metabolized at all, 100% of the initial dose found at 300 (5 h)
not cleaved (rat plasma): not metabolized at all, 100% of the initial dose found at 300 (5 h)

pGua-[N3-hAla-MLR-βhVal-RP-hPra]-W-OH
not cleaved (human plasma): not metabolized at all, 100% of the initial dose found at 300 (5 h)
not cleaved (rat plasma): not metabolized at all, 100% of the initial dose found at 300 (5 h)
